Patent publication US4680382A, “Analogues of actinomycin D” (priority 1986, dated 1987)
*1 amine or outer side, *2 acyl side, *3 side chain or, on linkers, in order; H or OH if unused. Where a SMILES comes first, the peptide text is derived from it. Bridges are numbered along the chain shown (N, C = ends). Roman numbers before positions name the chains, in order. [ ]: non-standard residue; d: D form. Actinocin(9to1) = Cc1c2oc3c(C)ccc(C(=O)[*:1])c3nc-2c(C(=O)[*:2])c(N)c1=O; NMeV = CN[C@H](C(=O)O)C(C)C; Sar = CNCC(=O)O

Assays:
DNA = test: Thermal denaturation of DNA (ΔTm); type: binding
Procedure: The "reverse" analogues bind to calf-thymus DNA, but the spectrophotometrically determined binding (Kapp and Bapp, equilibrium binding values) constants are found to be lower than those of AMD. The binding is also measured by thermal denaturation of DNA.
The equilibrium binding constants (Kapp and Bapp) of the "reverse" methyl 7a and the "reverse" phenyl 8a were determined from the Scatchard plots of binding isotherms; the Scatchard plots are produced according to the previously described methods using calf-thymus DNA [Sengupta et al, Biochem. Biophys. Acta 521, 89 (1978)]. The Kapp values are 2.5×10^6 and 2.3×10^6 M^-1, respectively; corresponding Bapp values are 0.038 and 0.036. […] But, these "reverse" analogues associate with DNA less strongly; their frequency of binding is also lower compared to that of AMD. However, the "reverse" analogues fail to cause any measurable change in the ratio of the intrinsic viscosity (γ) of DNA with the increasing ratios of [ligand]/DNA base pair (r), even when low molecular weight DNAs (0.5×10^5 to 1.0×10^5) were employed.
Melting points are determined on a Thomas-Hoover melting point apparatus at a heating rate of 2° C./min. Thin-layer chromatography was performed on silica gel plates (Brinkmann Instrument Inc.). Solvent systems were (A) EtOAc-acetone (4:1), (B) CHCl3 -MeOH (9:1) and (C) Cifferri, the organic phase of the mixture EtOAc-MeOH-H2 O (20:1:20). High-performance liquid chromatography was carried out on a Varian Model 5020 gradient liquid chromatograph equipped with a CD-111L chromatography data system and fitted with a Varian reversed-phase C18 column with the following solvent systems: I, CH3 CN-5 mM NH4 OAc buffer, pH 6.4 (68:32 isocratic), flow rate 1.5 mL/min; II, 65-95% water-methanol gradient for 70 min, 1 mL/min; III, 10-90% H2 O-MeOH gradient for 120 min, 1 mL/min, with UV-visible variable- and fixed-wavelength dual detectors at 254, 440, 470 and 520 nm. IR spectra were obtained on a Perkin-Elmer Model 237 Infra Cord with KBr micropellets or in chloroform solutions. UV-visible spectra were obtained on a Gilford 250 spectrophorometer, which, with the addition of a base-line reference compensator (Analog Multiplexer 5053) and thermoprogrammer, auto four cell programmer and thermoelectric cell holder 2577, were used to obtain thermal denaturation curves. Specific rotation values were determined in chloroform solutions with a Cary 60 spectropolarimeter. NMR spectra were obtained in a JEOL FQ-90 MHz spectrometer equipped with Fourier transform. EPR spectra analyses were recorded in a Varian E-9 EPR spectrometer. All elemental analyses were within ±0.4%.

rat hepatic microsomes = test: Stimulation of adrenochrome formation (superoxide generation) in rat hepatic microsomal incubations; details: for adrenochrome formation: 480 nm, 37° C., no more than 100 μM drug, basal 2.11 ± 0.11; for adrenochrome formation / percentage stimulation of adrenochrome formation over basal rate: no SOD; for adrenochrome formation in presence of SOD: SOD (superoxide dismutase) 5 μg/mL added
[1] = tested on: CCRF-CEM human lymphoblastic leukemic cells; test: In vitro cytotoxicity against CCRF-CEM cells; type: cell-based; details: 48 hr
Procedure: ^a Human lymphoblastic leukemic cells.
The analogues were tested for their cytotoxicity against tumor cells (time, 48 hr). […] This may be associated with the initial microsomal transformation of the "reverse" analogues to "symmetrical" analogue and/or other alternate bioactive forms (e.g., free-radicals, O2^-), followed by deactivation via formation of conjugates and facile elimination of these from the host. The "reverse" analogues show reduced toxicity in vivo and also the tritiated "reverse" 7a is metabolized in vitro.

[2] = Metabolism of tritiated drugs in tumor cell homogenate (sonicated P388 cells); type: in vitro ADME, murine; details: tumor cell homogenate (T), 16 hr; for Percent isolated: unconverted: 37° C.
Procedure: A method of using tumor cell sonicates was developed to study the metabolism of the analogues of AMD. By use of sonicated cells, the dilution effects that would occur if flasks of cultured cells were used are avoided. Although the cells are disrupted by this method, their enzyme systems appear to remain active. Large numbers of tumor cells (P388 murine leukemia) were sonicated in Earle's balanced salt solution (EBSS) and were incubated with tritiated AMD and its analogues 7a and 9a (Table II) for 16 hr. In another experiment, the analogues were treated with rat hepatic microsomes at 37° C. for 6 hr in the presence of a NADPH-generating system. The metabolic products were isolated and identified with the following results (Table II). […] In the microsomes, the major metabolites were in unconjugated forms; in the tumor cell homogenates, the major identified metabolites were glucuronide and sulfate conjugated forms. It should be pointed out that in these metabolic experiments, the identification of these glucuronide and/or sulfate conjugates was made only on the basis of the disappearance of the peaks from the HPLC chromatograms upon treatment with deconjugating enzymes glucarase.
A large number of P388 cells (10^8 cells) were sonicated in Earle's balanced salt solution (EBSS) in ice. Tritiated analogues 7a, 8a and AMD, 0.4 Ci/mmol, were added and the mixtures were incubated at 37° C. for 16 hr. Drugs in EBSS without the addition of the cell sonicates served as controls. The samples were treated with urea to bring the urea concentration to 5M. The procedure helped to free all drugs that associated noncovalently with DNA. After 60 min at room temperature, the samples were centrifuged through Amicon 1053 cone filters (molecular weight cut-off approximately 25000) after adjustment of pH to 5 to facilitate extraction of unconjugated metabolites in organic solvents.
Unconjugated or uncoupled products were first extracted with ethyl acetate (step A) and aliquots of aqueous layers were treated with equal volumes of glucarase (a preparation of β-glucuronidase and sulfatase) or with buffer (control); see following section. The glucuronide and the sulfate derivatives were thus deconjugated and the freed products were extracted in ethyl acetate (step B). A highly sensitive technique for detection of a series of AMD analogues using HPLC was employed; sensitivity of this assay ranges from 50 nmol when UV-visible absorbances are used to 1 pmol when radioactive analogues of appropriate specific activities are used.
The products in the ethyl acetate extracts were analyzed by HPLC using system I. Prior to deconjugation, the above aqueous layers were examined by systems II and III, which are more suitable for the water-soluble metabolites.
The aqueous layers from step B were combined with the material which was left as residues in the cones in step A. The residues in the cones were extracted in dilute sodium hydroxide and separated from the cell debris by centrifugation (2500 rpm), and the biopolymers were precipitated from the extract with excess ethanol. The precipitated polymers, mostly protein, were lyophilized and dissolved in 0.05M Tris-HCl and were fractionated on Superfine Sephacryl S-200 and the molecular weights of the major fractions were approximated. The major parts of radioactivity were confined to high molecular weight proteins with molecular weights above 67000. The amount of the tissue-bound material was estimated from the pellets in the above centrifugation (2500 rpm). The percentages were calculated on the basis of the total radioactive materials recovered. In most cases, it was over 90%.

SMILES | ΔTm (DNA melting temperature) (DNA) [°C] | adrenochrome formation (rat hepatic microsomes) | adrenochrome formation in presence of SOD (rat hepatic microsomes) | percentage stimulation of adrenochrome formation over basal rate (rat hepatic microsomes) [%] | in vitro (CCRF-CEM) ID50 [1] [nM] | Percent isolated: "tissue" bound [2] [%] | Percent isolated: protein conjugates [2] [%] | Percent isolated: unidentified metabolite [2] [%] | Percent metabolite isolated: 4a glucuronide and/or sulfate [2] [%] | Percent metabolite isolated: "symmetrical" AMD (4a) [2] [%] | Percent isolated: unconverted [2] [%] | Percent metabolite isolated: 2a glucuronide and/or sulfate [2] [%] | Percent metabolite isolated: 7-hydroxy-AMD (2a) [2] [%]
Cc1c2oc3c(C)c(O)c(N)c(C(=O)NC4C(=O)NC(C(C)C)C(=O)N5CCCC5C(=O)N(C)CC(=O)N(C)C(C(C)C)C(=O)OC4C)c3nc-2c(C(=O)NC2C(=O)NC(C(C)C)C(=O)N3CCCC3C(=O)N(C)CC(=O)N(C)C(C(C)C)C(=O)OC2C)c(N)c1=O (stereo not shown) [4a, 7-Hydroxy-8-amino-actinomycin D] | 7.9±0.2 | 19.3 ± 1.04 nmol min^-1 (mg of protein)^-1 | inhibited | 815 | 30 |  |  |  |  |  |  |  | 
Cc1nc2c(C(=O)NC3C(=O)NC(C(C)C)C(=O)N4CCCC4C(=O)N(C)CC(=O)N(C)C(C(C)C)C(=O)OC3C)c3nc4c(C(=O)NC5C(=O)NC(C(C)C)C(=O)N6CCCC6C(=O)N(C)CC(=O)N(C)C(C(C)C)C(=O)OC5C)c(N)c(=O)c(C)c-4oc3c(C)c2o1 [7a, 7-Amino-2,9,11-trimethyl-8H-8-oxooxazolo [4,5-b]phenoxazine 4,6-bis[carbonyl-L-threonyl-D-valyl-L-prolylsarcosyl-L-N-methylvaline-(threonine hydroxyl)] lactone] | 5.5±0.3 | 6.04 ± 0.19 nmol min^-1 (mg of protein)^-1 | inhibited | 186 | 110 | 8.8 | 5.5 | 12.7 | 17.5 | 15.5 | 40 |  | 
Cc1nc2c(C(=O)NC3C(=O)NC(C(C)C)C(=O)N4CCCC4C(=O)N(C)CC(=O)N(C)C(C(C)C)C(=O)OC3C)c3nc4c(C(=O)NC5C(=O)NC(C(C)C)C(=O)N6CCCC6C(=O)N(C)CC(=O)N(C)C(C(C)C)C(=O)OC5C)cc(=O)c(C)c-4oc3c(C)c2o1 (stereo not shown) [9a] |  | 4.36 ± 0.21 nmol min^-1 (mg of protein)^-1 | inhibited | 106 |  | 7.5 | 5.5 | 46.3 |  |  | 20 | 12.2 | 8.5
Cc1c2oc3c(C)ccc(C(=O)N[C@@H]4C(=O)N[C@H](C(C)C)C(=O)N5CCC[C@H]5C(=O)N(C)CC(=O)N(C)[C@@H](C(C)C)C(=O)O[C@@H]4C)c3nc-2c(C(=O)N[C@@H]2C(=O)N[C@H](C(C)C)C(=O)N3CCC[C@H]3C(=O)N(C)CC(=O)N(C)[C@@H](C(C)C)C(=O)O[C@@H]2C)c(N)c1=O [AMD, Actinomycin D] (I: T[dV]P[Sar][NMeV] / II: T[dV]P[Sar][NMeV]; ester I:1-I:C, II:1-II:C; linker I:N-II:N via Actinocin(9to1)) | 7.1±0.15 | 2.29 ± 0.33 nmol min^-1 (mg of protein)^-1 | inhibited | 8.5 | 50 |  |  |  |  |  | 100 |  | 
